Data set [1] can be described thus: Live imaging of intrathecally injected Gd-DTPA in dog. Type of data set: in vivo. As for the experimental part: For this experiment, an adult male two-year-old beagle was intrathecally injected at the L4-L5 space and live imaging was performed under anesthesia for five hours.
FIGS. 15C-15G show the signal counts corresponding to the presence of Gd-DTPA over the five hour monitoring period. The various monitored locations included the hippocampus, spinal column, substantia nigra, cortex, and striatum.

A short description of data set [2]: PET imaging of distribution of lumbar intrathecally injected 64Cu-DOTA, bolus volume and respiratory vest force. The settings on record: lumbar intrathecal. In kind it is in vivo, Cynomolgus monkeys. As for the experimental part:
The ability of a time varying force applied to the torso of a patient and increased bolus volumes to enhance CNS exposure of intrathecally injected compounds was tested in cynomolgus monkeys. Specifically, live whole animal positron emission tomography (PET) imaging was used to monitor the distribution of intrathecally injected ^64Cu-DOTA given as a compound surrogate. This approach allowed the direct imaging of the impact of the convective force on compound spread in CSF and the exposure of the primate CNS to the compound. During the experiments, Cynomolgus monkeys were given a lumbar intrathecal injection of ^64Cu-DOTA in a volume of either 0.36 ml (about 3% of the total CSF volume) or 1.86 ml (about 15% of the total CSF volume), see FIG. 6. The 3% total CSF volume was chosen to mimic a typical lumbar intrathecal injection volume of about 5 ml that is used clinically. Following lumbar intrathecal injection, the animals were placed in a respiratory vest for 20 minutes. The vest was turned on for 20 minutes only for those animals in which the effect of the time varying force enhanced convection was tested. Animals wearing the vest without activating the time varying force feature served as controls. Animals were then imaged with PET scanning for a time window of 30-60 min post dosing.

The conditions of data set [3]: 20 μl bolus, intrathecal. Here is the method: The same amount of each probe was used in each injected bolus. However, the total bolus volumes for the separate injections were 20 μl and 30 μl followed by a 40 μl saline flush. The boluses were injected intrathecally into rodents and the concentration of the two probes was monitored at the lumbar, thoracic, and cervical regions.

The nature of data set [4]: SPECT imaging of two probes injected in a single bolus into lumbar cistern and cisterna magna. Type of data set: in vivo, rat. The following applies: single 20 ml bolus, lumbar cistern and cisterna magna injection. As for the experimental part:
Two different probes including different isotopes were injected via a single […] bolus into rodents and then imaged at different energies. […] FIG. 8B depicts a structure of the second mitochondria targeting probe ^99mTc-Sestamibi. The bolus was injected into the lumbar cistern and the cisterna magna to help distinguish uptake into interstitial spaces versus uptake into intracellular compartments, see FIG. 8C. […] Consequently, it is apparent that the cell affinity of a compound for the structures and tissue within the CNS should be considered when determining the optimal parameters, such as injection site, bolus volume, and the applied forces, needed to ensure a compound reaches a desired target site.

As to `O=C([O-])CN(CCN(CC(=O)[O-])CC(=O)O)CCN(CC(=O)[O-])CC(=O)O.[Gd+3]` [Gd-DTPA], the “signal intensity over time in hippocampus, spinal column, substantia nigra, cortex and striatum” value in data set [1] (intrathecal injection at L4-L5, five hour monitoring period) is listed as “increase in the measured signal intensity over time”. For the same compound, the “location in the brain (cellular uptake vs interstitial spaces)” value in data set [1] (intrathecal injection at L4-L5, live imaging five hours) is “not taken up into the cells but instead was located in the interstitial spaces of the brain”.

As to `O=C([O-])CN1CCN(CC(=O)O)CCN(CC(=O)[O-])CCN(CC(=O)O)CC1.[64Cu+2]` [^64Cu-DOTA], the “CNS exposure / compound spread in CSF” value in data set [2] (3% CSF volume (0.36 ml), respiratory vest turned on 20 minutes, PET 30-60 min post dosing) was “the entire spinal cord, and brainstem displayed exposure”; in data set [2] (3% CSF volume (0.36 ml), vest not turned on, PET 30-60 min post dosing), “only reached the lower thoracic spinal cord”; in data set [2] (15% CSF volume (1.86 ml), combined with time varying forces of the vest), “greatest rostral spread”; in data set [2] (15% CSF volume (1.86 ml), vest not activated, PET 30-60 min post dosing) it was “exposure over the entire spinal cord and portions of the brainstem”.

In the case of `[C-]#[N+]CC(C)(C)OC.[C-]#[N+]CC(C)(C)OC.[C-]#[N+]CC(C)(C)OC.[C-]#[N+]CC(C)(C)OC.[C-]#[N+]CC(C)(C)OC.[C-]#[N+]CC(C)(C)OC.[Tc]` [^99mTc-Sestamibi], in data set [3], the “concentration in the lumbar region at injection” value was “initially high concentration”; the “concentration over time in the thoracic and cervical regions” value was “did not increase”. The “distribution along the CNS” value in data set [4] was “showed very little distribution along the CNS”.

With ^111In-DTPA, the “distribution along the CNS” value in data set [4] is on record as “showed distribution from the injection site towards the head of the rodent along the CNS”.
